Measurements as given in ChEMBL document CHEMBL1201862, “PubChem BioAssay data set” (2004).
Calls of active or inactive are those of the source.

Legend:
[1] = target: T1, E3 ubiquitin-protein ligase XIAP (Homo sapiens, UniProt P98170); test: Counter Screen using XIAP-Bir3 for Chemical Antagonists of Bir1/2 domains of IAP-family anti-apoptotic proteins. [Related pubchem assays (depositor defined):AID1018, AID1449, AID1514, AID1638, AID1749, AID1750, AID488957, AID488963]
[2] = target: T1, E3 ubiquitin-protein ligase XIAP; test: small molecules displacing peptide from XIAP – biochemical, IAP family, fluorescence polarization (AID 1018); format: functional
[3] = Trypanosoma cruzi growth suppression in host cells – NIH3T3 host cells, beta-gal luminescence, confirmation (AID 2044); format: functional, cell-based;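 also: intracellular parasites grown in NIH/3T3 mouse fibroblasts as host cells; luminescent beta-galactosidase reporter signal from transgenic T. cruzi replicating inside host cells; inhibitors lower the luminescence signal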
[4] = target: T2, Microphthalmia-associated transcription factor (Homo sapiens, UniProt O75030); test: reducers of TRPM1 reporter luminescence, concentration series – cell-based, SK-MEL-5, cherry-picked, set 3, MITF inhibitor project, dose response (AID 493073); format: functional;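 also: SK-MEL-5 melanoma cells with luciferase driven by the MITF target TRPM1 promoter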
T2 sequence (O75030 whole entry): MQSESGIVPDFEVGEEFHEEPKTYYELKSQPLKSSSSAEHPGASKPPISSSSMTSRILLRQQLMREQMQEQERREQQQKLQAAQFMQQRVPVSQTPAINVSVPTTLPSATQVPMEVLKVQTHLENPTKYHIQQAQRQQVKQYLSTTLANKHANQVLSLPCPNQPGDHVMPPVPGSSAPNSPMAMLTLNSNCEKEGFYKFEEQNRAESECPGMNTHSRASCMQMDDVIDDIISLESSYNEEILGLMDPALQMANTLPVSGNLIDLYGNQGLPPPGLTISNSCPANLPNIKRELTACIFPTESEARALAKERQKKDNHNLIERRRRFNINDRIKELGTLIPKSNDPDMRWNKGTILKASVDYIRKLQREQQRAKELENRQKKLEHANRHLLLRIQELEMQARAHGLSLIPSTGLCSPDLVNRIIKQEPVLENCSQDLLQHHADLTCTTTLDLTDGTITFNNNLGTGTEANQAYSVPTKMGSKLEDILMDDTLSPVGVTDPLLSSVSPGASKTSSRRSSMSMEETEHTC

[5] = Luminescence Cell-Based Dose Response HTS to Identify Activators of Luciferase Translation or Activity in H4 […] Cells. [Related pubchem assays: 1829 (Project Summary), 1814 (Primary HTS)]; format: functional
[6] = NIH3T3 cell viability loss – ATP luminescence, mouse fibroblasts, counter-screen, dose response (AID 2010); format: functional, cell-based;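 also: cells exposed to compound for about 90 hours before reading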
H4 = test: Luminescence Cell-Based Dose Response HTS to Identify Activators of 5'UTR Stem-Loop Driven Prion Protein mRNA Translation in H4 Neuroglioblastoma Cells. [Related pubchem assays: 1829 (Project Summary), 1814 (Primary HTS)]; format: functional; conditions: Homo sapiens
[7] = target: DNA damage-inducible transcript 3 protein (Mus musculus, UniProt P35639); format: functional, Cricetulus griseus
[8] = reduction of Shn3 3'UTR-driven luciferase in osteoblasts – cell-based, Clone20 osteoblasts, firefly luciferase, cherry-picked, dose response (AID 624132); format: functional;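 also: firefly luciferase luminescence from reporter carrying the Shn3 3'UTR in osteoblasts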
[9] = loss of viability in HepG2 cells – cell-based, CellTiter-Glo, cherry-picked, cytotoxicity control for Shn3 inhibitor project, dose response (AID 624134); format: functional
[10] = Luminescence Cell-Based Dose Confirmation HTS to Identify Activators of 5'UTR Stem-Loop Driven Alpha-Synuclein mRNA Translation in H4 Neuroglioblastoma Cells. [Related pubchem assays: 1829 (Project Summary), 1814 (Primary HTS)]; format: functional
[11] = non-specific 3'UTR reporter inhibition in Clone20-Shn3RL – cell-based, Renilla luciferase, cherry-picked, counter-screen for Shn3 inhibitor project, dose response (AID 624133); format: functional
A-375 = test: MITF: Counter assay: A375 proliferation Measured in Cell-Based System Using Plate Reader - 2084-03_Inhibitor_Dose_DryPowder_Activity. [Related pubchem assays (depositor defined):AID488944]; format: functional; conditions: Homo sapiens
Cannabinoid receptor 2 [12] = target: T3, Cannabinoid receptor 2 (Homo sapiens, UniProt P34972); test: SAR analysis of agonists of the Cannabinoid Receptor 2 using an Image-Based Assay - Set 3. [Related pubchem assays (depositor defined):AID2013, AID2026]; format: functional
[13] = target: G-protein coupled receptor 55 (Homo sapiens, UniProt Q9Y2T6); test: SAR Analysis of Selective Antagonists of GPR55 using an Image-Based Assay - Set 4. [Related pubchem assays (depositor defined):AID2013, AID2026]; format: functional;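 also: antagonism of response to 5 µM lysophosphatidylinositol agonist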
[14] = target: T4, G-protein coupled receptor 35 (Homo sapiens, UniProt Q9HC97); test: SAR analysis of Antagonists of the GPR35 Receptor using an Image-Based Assay - Set 6. [Related pubchem assays (depositor defined):AID2013, AID2026]; format: functional
Cannabinoid receptor 1 [15] = target: T5, Cannabinoid receptor 1 (Homo sapiens, UniProt P21554); test: SAR analysis of antagonists of the Cannabinoid Receptor 1 using an Image-Based Assay - Set 4. [Related pubchem assays (depositor defined):AID2013, AID2026]; format: functional
Cannabinoid receptor 1 [16] = target: T5, Cannabinoid receptor 1; test: SAR analysis of agonists of the Cannabinoid Receptor 1 using an Image-Based Assay - Set 4. [Related pubchem assays (depositor defined):AID2013, AID2026]; format: functional
Cannabinoid receptor 2 [17] = target: T3, Cannabinoid receptor 2; test: SAR analysis of antagonists of the Cannabinoid Receptor 2 using an Image-Based Assay - Set 3. [Related pubchem assays (depositor defined):AID2013, AID2026]; format: functional
[18] = target: T4, G-protein coupled receptor 35; test: SAR analysis of Agonists of the GPR35 Receptor using an Image-Based Assay - Set 4. [Related pubchem assays (depositor defined):AID2013, AID2026]; format: functional
[19] = toxicity toward cultured mammalian cells – cell-based, plate reader, cherry-pick samples, cytotoxicity control, dose response (AID 504397); format: functional
HEK293 = test: EBV LMP1 TES2 canonical NF-kB signalling blockers – cell-based, HEK293, luciferase, cherry-pick, dose response (AID 588343); format: functional; conditions: Homo sapiens
[20] = target: Voltage-gated inwardly rectifying potassium channel KCNH2 (Homo sapiens, UniProt Q12809); test: concentration-dependent hERG rescue from blockers – cell-based, thallium flux, dose response (AID 2121); format: ADME
Voltage-gated inwardly rectifying potassium channel KCNH2, sequence (Q12809 whole entry): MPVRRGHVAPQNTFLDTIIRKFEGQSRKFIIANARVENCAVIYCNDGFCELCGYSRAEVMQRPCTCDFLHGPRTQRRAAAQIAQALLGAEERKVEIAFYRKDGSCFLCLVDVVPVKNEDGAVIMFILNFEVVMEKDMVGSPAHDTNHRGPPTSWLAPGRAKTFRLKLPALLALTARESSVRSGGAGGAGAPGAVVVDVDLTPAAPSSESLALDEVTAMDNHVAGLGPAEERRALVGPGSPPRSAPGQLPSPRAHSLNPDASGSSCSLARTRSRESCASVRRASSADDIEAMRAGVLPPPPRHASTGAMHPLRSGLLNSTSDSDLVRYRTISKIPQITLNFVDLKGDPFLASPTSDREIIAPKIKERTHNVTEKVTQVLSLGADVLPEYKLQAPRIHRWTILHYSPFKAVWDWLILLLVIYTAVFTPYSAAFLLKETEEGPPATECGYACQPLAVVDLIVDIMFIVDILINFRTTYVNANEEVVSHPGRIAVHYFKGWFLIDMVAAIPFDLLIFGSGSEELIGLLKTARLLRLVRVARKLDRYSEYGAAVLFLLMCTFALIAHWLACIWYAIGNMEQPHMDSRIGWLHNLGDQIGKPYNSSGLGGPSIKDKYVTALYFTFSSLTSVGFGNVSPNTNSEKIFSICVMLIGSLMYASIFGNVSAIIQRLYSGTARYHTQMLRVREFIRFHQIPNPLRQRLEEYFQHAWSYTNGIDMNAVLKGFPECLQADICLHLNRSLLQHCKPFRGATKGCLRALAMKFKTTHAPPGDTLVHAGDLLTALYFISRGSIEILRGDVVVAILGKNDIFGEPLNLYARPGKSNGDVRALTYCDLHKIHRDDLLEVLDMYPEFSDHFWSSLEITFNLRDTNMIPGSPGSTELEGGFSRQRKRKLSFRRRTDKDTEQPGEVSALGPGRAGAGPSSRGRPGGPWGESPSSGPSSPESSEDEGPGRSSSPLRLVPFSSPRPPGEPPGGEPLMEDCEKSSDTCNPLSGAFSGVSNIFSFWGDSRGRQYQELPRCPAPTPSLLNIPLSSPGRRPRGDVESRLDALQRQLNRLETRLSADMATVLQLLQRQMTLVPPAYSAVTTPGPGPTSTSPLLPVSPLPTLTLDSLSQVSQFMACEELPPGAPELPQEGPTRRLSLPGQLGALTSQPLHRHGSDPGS

T4 sequence (Q9HC97 whole entry): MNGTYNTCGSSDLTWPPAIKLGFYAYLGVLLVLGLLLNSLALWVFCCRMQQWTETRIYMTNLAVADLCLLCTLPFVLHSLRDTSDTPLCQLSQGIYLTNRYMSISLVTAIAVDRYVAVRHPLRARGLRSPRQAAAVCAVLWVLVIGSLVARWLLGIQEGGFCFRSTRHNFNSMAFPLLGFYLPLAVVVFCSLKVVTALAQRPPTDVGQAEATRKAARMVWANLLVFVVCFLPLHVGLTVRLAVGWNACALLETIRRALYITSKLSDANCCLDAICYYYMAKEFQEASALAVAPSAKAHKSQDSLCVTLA
T1 sequence (P98170 whole entry): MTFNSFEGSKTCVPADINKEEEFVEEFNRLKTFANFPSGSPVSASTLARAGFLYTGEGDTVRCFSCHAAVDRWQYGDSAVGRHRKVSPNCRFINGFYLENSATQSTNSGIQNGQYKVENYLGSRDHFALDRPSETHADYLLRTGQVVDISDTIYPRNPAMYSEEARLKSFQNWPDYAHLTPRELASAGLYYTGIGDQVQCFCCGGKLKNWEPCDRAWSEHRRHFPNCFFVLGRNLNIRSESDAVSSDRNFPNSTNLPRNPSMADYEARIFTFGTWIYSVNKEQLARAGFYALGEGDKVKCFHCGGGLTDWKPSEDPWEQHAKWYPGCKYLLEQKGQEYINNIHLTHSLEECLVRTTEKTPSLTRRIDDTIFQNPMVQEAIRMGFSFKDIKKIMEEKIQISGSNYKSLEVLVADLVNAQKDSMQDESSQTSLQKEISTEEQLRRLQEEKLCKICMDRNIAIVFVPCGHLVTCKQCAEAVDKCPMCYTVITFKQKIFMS
T5 sequence (P21554 whole entry): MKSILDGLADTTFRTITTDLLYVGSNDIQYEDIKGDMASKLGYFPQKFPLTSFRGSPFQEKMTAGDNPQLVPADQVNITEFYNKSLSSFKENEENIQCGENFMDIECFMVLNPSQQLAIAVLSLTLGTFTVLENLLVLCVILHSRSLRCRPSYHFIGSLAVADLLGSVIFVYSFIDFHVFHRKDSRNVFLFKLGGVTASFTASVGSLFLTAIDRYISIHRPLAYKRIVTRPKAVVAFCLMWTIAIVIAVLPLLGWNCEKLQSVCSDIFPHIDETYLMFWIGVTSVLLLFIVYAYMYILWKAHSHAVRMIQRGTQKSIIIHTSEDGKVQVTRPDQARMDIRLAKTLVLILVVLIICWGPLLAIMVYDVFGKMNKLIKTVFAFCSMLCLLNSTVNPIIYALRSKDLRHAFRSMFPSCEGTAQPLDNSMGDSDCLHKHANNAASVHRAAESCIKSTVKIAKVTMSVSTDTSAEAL
T3 sequence (P34972 whole entry): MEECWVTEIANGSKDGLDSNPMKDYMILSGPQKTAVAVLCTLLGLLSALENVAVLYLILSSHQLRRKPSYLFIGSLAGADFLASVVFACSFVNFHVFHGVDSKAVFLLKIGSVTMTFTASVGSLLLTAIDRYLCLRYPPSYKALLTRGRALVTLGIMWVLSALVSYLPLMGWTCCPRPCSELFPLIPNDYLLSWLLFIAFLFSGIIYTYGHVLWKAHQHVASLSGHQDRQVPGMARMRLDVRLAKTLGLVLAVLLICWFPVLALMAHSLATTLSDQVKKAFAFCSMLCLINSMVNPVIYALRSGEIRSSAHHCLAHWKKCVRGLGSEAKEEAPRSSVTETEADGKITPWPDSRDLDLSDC
DNA damage-inducible transcript 3 protein, sequence (P35639 whole entry): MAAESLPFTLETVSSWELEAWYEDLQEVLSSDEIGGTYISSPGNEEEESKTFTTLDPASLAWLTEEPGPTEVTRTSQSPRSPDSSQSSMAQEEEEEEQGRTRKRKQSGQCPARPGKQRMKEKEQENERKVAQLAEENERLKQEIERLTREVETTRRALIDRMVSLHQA
G-protein coupled receptor 55, sequence (Q9Y2T6 whole entry): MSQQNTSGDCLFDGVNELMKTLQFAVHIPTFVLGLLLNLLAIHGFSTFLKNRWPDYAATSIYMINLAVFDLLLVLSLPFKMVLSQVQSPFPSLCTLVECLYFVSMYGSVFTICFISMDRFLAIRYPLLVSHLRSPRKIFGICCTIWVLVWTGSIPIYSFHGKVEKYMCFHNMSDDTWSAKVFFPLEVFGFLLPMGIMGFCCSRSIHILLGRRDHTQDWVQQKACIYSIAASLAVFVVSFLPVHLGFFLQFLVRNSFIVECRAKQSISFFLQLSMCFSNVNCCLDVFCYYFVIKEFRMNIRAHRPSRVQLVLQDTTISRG

Q: What does the source list for `CN1/C(=C\C=C2\N=C(c3ccc(F)cc3)OC2=O)C(C)(C)c2ccccc21`?
A: IC50 [1]: > 12.5 µM (inactive); IC50 [2]: > 100 µM (not active)

Q: Which EC50 [3] does the source give for `CC(C)(C)C(=O)Cn1ncc(Br)c(Br)c1=O` here?
A: Its EC50 is 2.19 µM (active).

Q: What about the AC50 [4] of the same compound?
A: Its AC50 is 3.92 µM (active).

Q: And the EC50 [5]?
A: The EC50 was > 120 µM (not active).

Q: What about the EC50 [6] of the same compound?
A: The EC50 was 1.93 µM (active).

Q: And the EC50 (H4)?
A: Its EC50 is > 120 µM (not active).

Q: What about the “Absolute IC50 (CHOP)” value [7] of the same compound?
A: The value was 10 µM.

Q: What about the AC50 [8] of the same compound?
A: The AC50 was 9.51 µM (active).

Q: What about the AC50 [9] of the same compound?
A: The AC50 was 67.2 µM (active).

Q: What about the EC50 [10] of the same compound?
A: Its EC50 is > 120 µM (not active).

Q: And the AC50 [11]?
A: The AC50 was 13.9 µM (active).

Q: What about the AC50 (A-375) of the same compound?
A: The AC50 was 32.8 µM (active).

Q: With `O=C(Cc1ccc(F)cc1)N1CCC(n2nc(-c3ccccc3)oc2=O)CC1` as the compound, how does the EC50 (Cannabinoid receptor 2 [12]) read?
A: Its EC50 is > 32 µM (inactive).

Q: And the IC50 [13]?
A: Its IC50 is > 32 µM (inactive).

Q: And the IC50 [14]?
A: The IC50 was > 32 µM (inactive).

Q: What about the IC50 (Cannabinoid receptor 1 [15]) of the same compound?
A: The IC50 was 11.7 µM (inactive).

Q: And the EC50 (Cannabinoid receptor 1 [16])?
A: The EC50 was > 32 µM (inactive).

Q: What about the IC50 (Cannabinoid receptor 2 [17]) of the same compound?
A: Its IC50 is > 32 µM (inactive).

Q: And the EC50 [18]?
A: The EC50 was > 32 µM (inactive).

Q: Which EC50 [3] does the source give for `Oc1c(N=NC(S)=Nc2ccccc2F)c2ccccc2n1Cc1ccccc1F` here?
A: The EC50 was 1.26 µM (active).

Q: What about the AC50 [19] of the same compound?
A: The AC50 was 302 µM (active).

Q: What about the AC50 (HEK293) of the same compound?
A: The AC50 was 4.06 µM (active).

Q: And the EC50 [20]?
A: Its EC50 is 0.44 µM (active).
